Reference: the NIST ThermoML archive (doi:10.1016/j.jct.2012.06.031)

Test: xn = mol fraction of the nth substance listed
Conditions: 101 kPa, Liquid; for viscosity: Concentric cylinders viscometry; for mass density: Vibrating tube method

CC(O)CO (stereo not given) [1,2-propanediol] + c1ccncc1
Conditions	mass density [kg/m3]	viscosity [mPa·s]
288.15 K, x2 = 0	1040.08	81.21
288.15 K, x2 = 0.1	1035.59	52.73
288.15 K, x2 = 0.2	1030.94	33
288.15 K, x2 = 0.2999	1026.33	20.08
288.15 K, x2 = 0.4	1021.39	12.08
288.15 K, x2 = 0.4999	1016.46	7.326
288.15 K, x2 = 0.6	1011.23	4.547
288.15 K, x2 = 0.7001	1005.6	3
288.15 K, x2 = 0.8	999.698	1.935
288.15 K, x2 = 0.9	994.093	1.391
293.15 K, x2 = 0	1036.46	58.75
293.15 K, x2 = 0.1	1031.78	38.74
293.15 K, x2 = 0.2	1026.95	24.82
293.15 K, x2 = 0.2999	1022.18	15.55
293.15 K, x2 = 0.4	1017.12	9.643
293.15 K, x2 = 0.4999	1012.06	6.036
293.15 K, x2 = 0.6	1006.71	3.857
293.15 K, x2 = 0.7001	1000.96	2.588
293.15 K, x2 = 0.8	994.925	1.736
293.15 K, x2 = 0.9	989.201	1.274
298.15 K, x2 = 0	1032.8	43.44
298.15 K, x2 = 0.1	1027.92	29.09
298.15 K, x2 = 0.2	1022.93	19.05
298.15 K, x2 = 0.2999	1018.01	12.15
298.15 K, x2 = 0.4	1012.81	7.822
298.15 K, x2 = 0.4999	1007.63	5.021
298.15 K, x2 = 0.6	1002.16	3.31
298.15 K, x2 = 0.7001	996.296	2.292
298.15 K, x2 = 0.8	990.138	1.567
298.15 K, x2 = 0.9	984.298	1.171
303.15 K, x2 = 0	1029.09	32.75
303.15 K, x2 = 0.1	1024.03	22.28
303.15 K, x2 = 0.2	1018.88	14.9
303.15 K, x2 = 0.2999	1013.81	9.81
303.15 K, x2 = 0.4	1008.48	6.396
303.15 K, x2 = 0.4999	1003.18	4.234
303.15 K, x2 = 0.6	997.549	2.866
303.15 K, x2 = 0.7001	991.612	2.008
303.15 K, x2 = 0.8	985.331	1.425
303.15 K, x2 = 0.9	979.376	1.082
308.15 K, x2 = 0	1025.34	25.16
308.15 K, x2 = 0.1	1020.1	17.37
308.15 K, x2 = 0.2	1014.79	11.85
308.15 K, x2 = 0.2999	1009.58	7.981
308.15 K, x2 = 0.4	1004.12	5.363
308.15 K, x2 = 0.4999	998.699	3.638
308.15 K, x2 = 0.6	992.998	2.514
308.15 K, x2 = 0.7001	986.903	1.795
308.15 K, x2 = 0.8	980.506	1.301
308.15 K, x2 = 0.9	974.443	1.002
313.15 K, x2 = 0	1021.55	19.65
313.15 K, x2 = 0.1	1016.14	13.76
313.15 K, x2 = 0.2	1010.67	9.567
313.15 K, x2 = 0.2999	1005.32	6.581
313.15 K, x2 = 0.4	999.722	4.523
313.15 K, x2 = 0.4999	994.186	3.137
313.15 K, x2 = 0.6	988.375	2.218
313.15 K, x2 = 0.7001	982.171	1.613
313.15 K, x2 = 0.8	975.66	1.193
313.15 K, x2 = 0.9	969.488	0.9311
318.15 K, x2 = 0	1017.73	15.58
318.15 K, x2 = 0.1	1012.14	11.07
318.15 K, x2 = 0.2	1006.51	7.833
318.15 K, x2 = 0.2999	1001.02	5.495
318.15 K, x2 = 0.4	995.298	3.855
318.15 K, x2 = 0.4999	989.644	2.729
318.15 K, x2 = 0.6	983.722	1.972
318.15 K, x2 = 0.7001	977.41	1.459
318.15 K, x2 = 0.8	970.792	1.098
318.15 K, x2 = 0.9	964.514	0.8674
323.15 K, x2 = 0	1013.86	12.55
323.15 K, x2 = 0.1	1008.1	9.082
323.15 K, x2 = 0.2	1002.32	6.551
323.15 K, x2 = 0.2999	996.693	4.678
323.15 K, x2 = 0.4	990.839	3.349
323.15 K, x2 = 0.4999	985.073	2.416
323.15 K, x2 = 0.6	979.044	1.786
323.15 K, x2 = 0.7001	972.625	1.341
323.15 K, x2 = 0.8	965.9	1.022
323.15 K, x2 = 0.9	959.522	0.8177

OCCCO [propan-1,3-diol] + c1ccncc1
Conditions	mass density [kg/m3]	viscosity [mPa·s]
288.15 K, x2 = 0	1056.12	66.53
288.15 K, x2 = 0.0999	1050.49	50.57
288.15 K, x2 = 0.2	1044.96	35.44
288.15 K, x2 = 0.3	1038.93	23
288.15 K, x2 = 0.4001	1032.58	14.29
288.15 K, x2 = 0.5	1025.96	8.708
288.15 K, x2 = 0.5999	1018.97	5.207
288.15 K, x2 = 0.7	1011.77	3.264
288.15 K, x2 = 0.7998	1004.3	2.111
288.15 K, x2 = 0.8998	996.608	1.46
293.15 K, x2 = 0	1053.02	51.91
293.15 K, x2 = 0.0999	1047.19	39.57
293.15 K, x2 = 0.2	1041.48	27.99
293.15 K, x2 = 0.3	1035.25	18.46
293.15 K, x2 = 0.4001	1028.71	11.68
293.15 K, x2 = 0.5	1021.91	7.266
293.15 K, x2 = 0.5999	1014.73	4.467
293.15 K, x2 = 0.7	1007.35	2.869
293.15 K, x2 = 0.7998	999.687	1.897
293.15 K, x2 = 0.8998	991.803	1.336
298.15 K, x2 = 0	1049.91	41.04
298.15 K, x2 = 0.0999	1043.89	31.39
298.15 K, x2 = 0.2	1037.98	22.36
298.15 K, x2 = 0.3	1031.55	14.91
298.15 K, x2 = 0.4001	1024.82	9.617
298.15 K, x2 = 0.5	1017.85	6.147
298.15 K, x2 = 0.5999	1010.48	3.867
298.15 K, x2 = 0.7	1002.91	2.54
298.15 K, x2 = 0.7998	995.061	1.715
298.15 K, x2 = 0.8998	986.987	1.228
303.15 K, x2 = 0	1046.79	32.84
303.15 K, x2 = 0.0999	1040.57	25.21
303.15 K, x2 = 0.2	1034.47	18.15
303.15 K, x2 = 0.3	1027.85	12.34
303.15 K, x2 = 0.4001	1020.93	8.079
303.15 K, x2 = 0.5	1013.76	5.244
303.15 K, x2 = 0.5999	1006.21	3.38
303.15 K, x2 = 0.7	998.466	2.266
303.15 K, x2 = 0.7998	990.425	1.557
303.15 K, x2 = 0.8998	982.158	1.132
308.15 K, x2 = 0	1043.64	26.58
308.15 K, x2 = 0.0999	1037.24	20.48
308.15 K, x2 = 0.2	1030.94	14.88
308.15 K, x2 = 0.3	1024.12	10.26
308.15 K, x2 = 0.4001	1017.01	6.845
308.15 K, x2 = 0.5	1009.66	4.549
308.15 K, x2 = 0.5999	1001.93	2.976
308.15 K, x2 = 0.7	994	2.033
308.15 K, x2 = 0.7998	985.773	1.424
308.15 K, x2 = 0.8998	977.312	1.05
313.15 K, x2 = 0	1040.49	21.74
313.15 K, x2 = 0.0999	1033.89	16.82
313.15 K, x2 = 0.2	1027.39	12.32
313.15 K, x2 = 0.3	1020.38	8.615
313.15 K, x2 = 0.4001	1013.08	5.832
313.15 K, x2 = 0.5	1005.55	3.951
313.15 K, x2 = 0.5999	997.629	2.636
313.15 K, x2 = 0.7	989.518	1.835
313.15 K, x2 = 0.7998	981.102	1.307
313.15 K, x2 = 0.8998	972.452	0.975
318.15 K, x2 = 0	1037.31	17.95
318.15 K, x2 = 0.0999	1030.51	13.94
318.15 K, x2 = 0.2	1023.82	10.31
318.15 K, x2 = 0.3	1016.62	7.299
318.15 K, x2 = 0.4001	1009.13	5.033
318.15 K, x2 = 0.5	1001.41	3.455
318.15 K, x2 = 0.5999	993.305	2.35
318.15 K, x2 = 0.7	985.015	1.663
318.15 K, x2 = 0.7998	976.412	1.204
318.15 K, x2 = 0.8998	967.572	0.9082
323.15 K, x2 = 0	1034.12	14.96
323.15 K, x2 = 0.0999	1027.12	11.75
323.15 K, x2 = 0.2	1020.24	8.779
323.15 K, x2 = 0.3	1012.83	6.286
323.15 K, x2 = 0.4001	1005.15	4.412
323.15 K, x2 = 0.5	997.251	3.078
323.15 K, x2 = 0.5999	988.961	2.139
323.15 K, x2 = 0.7	980.49	1.53
323.15 K, x2 = 0.7998	971.701	1.119
323.15 K, x2 = 0.8998	962.672	0.8532
